Experimental data from patent US9439980B2, “Thymidylate kinase fusions and uses thereof” (priority 2008, dated 2016).

Test system: Jurkat cells
Assay: HPLC determination of AZT metabolites in cells treated with 100 μM AZT
Format: cell-based, human
Details: 36 hrs
Protocol: The cells were cultured in the presence of 100 μM AZT for 36 hrs. 10^7 cells were homogenized by sonication in 100 μl of 5% (w/v) trichloroacetic acid. The supernatant is collected after homogenate had been centrifuged at 10,000×g for 15 min at 4° C. The trichloroacetic acid was removed by extraction with an equal volume of 20% tri-n-octylamine in pentane. The neutralized aqueous fraction is directly injected into HPLC. Separation of AZT and its metabolites was performed on a C18 column (Waters) with a mobile phase composed of 0.2 M phosphate buffer containing 4 mM tetrabutylammonium hydrogen sulfate (pH 7.5) and acetonitrile in the ratio of 97:3 (v/v). The mobile phase was pumped at a flow rate of 1.5 ml/min. The UV absorbance was monitored at 270 nm. Five million cell equivalents were injected and analyzed in triplicate.

Cc1cn([C@H]2C[C@H](N=[N+]=[N-])[C@@H](CO)O2)c(=O)[nH]c1=O [AZT, 3′-azido-3′-deoxythymidine]
conversion ratio of AZT-TP to AZT-MP in non-transduced cells: 0.02
